From paper PMC11233931, “Remodeling tumor‐associated macrophage for anti‐cancer effects by rational design of irreversible inhibition of mitogen‐activated protein kinase‐activated protein kinase 2” (MedComm, 2024)

Legend:
Assay in all cases: Eurofins kinase selectivity profile against 380 other human recombinant kinases (Table S2)
Type in all cases: biochemical
[1] = molecular target: T1, 380 human recombinant protein kinases (Homo sapiens, UniProt P36507); settings: MEK2(h), read-out: Inhibition rate
T1 construct: purchased Eurofins (Celle Lévescault)
T1 sequence (P36507 whole entry): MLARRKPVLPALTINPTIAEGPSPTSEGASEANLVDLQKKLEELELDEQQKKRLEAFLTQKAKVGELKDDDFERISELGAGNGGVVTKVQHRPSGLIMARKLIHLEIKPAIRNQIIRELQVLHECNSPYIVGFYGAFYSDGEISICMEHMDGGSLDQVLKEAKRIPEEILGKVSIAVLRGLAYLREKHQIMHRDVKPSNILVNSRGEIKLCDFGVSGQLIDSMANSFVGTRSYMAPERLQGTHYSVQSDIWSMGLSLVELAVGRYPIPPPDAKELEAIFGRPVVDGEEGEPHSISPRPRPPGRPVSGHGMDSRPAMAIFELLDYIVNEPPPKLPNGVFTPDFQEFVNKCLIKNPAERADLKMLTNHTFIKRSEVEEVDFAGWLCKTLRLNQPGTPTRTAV
Method in brief: (§1)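 To gauge specificity for MK2, the compound is profiled externally at various concentrations on recombinant human kinases, 380 in total.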

[2] = molecular target: T2, 380 human recombinant protein kinases (Homo sapiens, UniProt P00519, Q252H); settings: Abl (Q252H) (h), read-out: Inhibition rate
T2 construct: purchased Eurofins (Celle Lévescault)
Method in brief: as §1

[3] = molecular target: T3, 380 human recombinant protein kinases (Homo sapiens, UniProt Q05655); settings: PKCδ(h), read-out: Inhibition rate
T3 construct: purchased Eurofins (Celle Lévescault)
T3 sequence (Q05655 whole entry): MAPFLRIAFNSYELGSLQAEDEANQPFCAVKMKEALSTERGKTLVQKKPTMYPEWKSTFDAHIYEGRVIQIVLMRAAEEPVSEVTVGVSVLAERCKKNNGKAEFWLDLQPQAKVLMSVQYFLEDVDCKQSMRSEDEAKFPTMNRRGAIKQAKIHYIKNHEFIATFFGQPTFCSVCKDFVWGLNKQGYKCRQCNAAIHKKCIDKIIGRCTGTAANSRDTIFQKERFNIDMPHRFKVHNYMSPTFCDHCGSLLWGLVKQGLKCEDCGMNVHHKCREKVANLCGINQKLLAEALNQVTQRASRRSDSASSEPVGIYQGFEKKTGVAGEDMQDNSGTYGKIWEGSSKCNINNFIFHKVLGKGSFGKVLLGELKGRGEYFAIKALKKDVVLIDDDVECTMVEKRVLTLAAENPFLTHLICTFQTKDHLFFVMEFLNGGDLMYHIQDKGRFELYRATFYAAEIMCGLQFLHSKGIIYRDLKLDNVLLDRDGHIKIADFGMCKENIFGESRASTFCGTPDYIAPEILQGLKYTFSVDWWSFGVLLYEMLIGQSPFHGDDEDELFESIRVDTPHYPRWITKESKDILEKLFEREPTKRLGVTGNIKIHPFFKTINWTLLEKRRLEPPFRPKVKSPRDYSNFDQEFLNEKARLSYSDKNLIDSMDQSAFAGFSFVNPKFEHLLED
Method in brief: as §1

[4] = molecular target: T4, 380 human recombinant protein kinases (Homo sapiens, UniProt Q52WX2); settings: SBK1(h), read-out: Inhibition rate (%)
T4 construct: purchased Eurofins (Celle Lévescault)
T4 sequence (Q52WX2 whole entry): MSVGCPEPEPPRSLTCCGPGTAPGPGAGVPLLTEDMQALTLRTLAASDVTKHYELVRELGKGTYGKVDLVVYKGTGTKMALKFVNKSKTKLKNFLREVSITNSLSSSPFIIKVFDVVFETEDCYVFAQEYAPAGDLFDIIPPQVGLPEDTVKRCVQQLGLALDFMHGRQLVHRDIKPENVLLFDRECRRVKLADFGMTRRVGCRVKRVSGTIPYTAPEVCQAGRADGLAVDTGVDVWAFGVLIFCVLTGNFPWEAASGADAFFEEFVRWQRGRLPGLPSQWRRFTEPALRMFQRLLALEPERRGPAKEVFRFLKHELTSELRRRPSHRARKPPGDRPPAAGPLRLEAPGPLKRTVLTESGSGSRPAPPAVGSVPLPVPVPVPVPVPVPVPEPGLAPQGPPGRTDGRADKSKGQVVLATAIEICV
Method in brief: as §1

[5] = molecular target: T5, 380 human recombinant protein kinases (Homo sapiens, UniProt P30291); settings: Wee1(h), read-out: Inhibition rate (%)
T5 construct: purchased Eurofins (Celle Lévescault)
T5 sequence (P30291 whole entry): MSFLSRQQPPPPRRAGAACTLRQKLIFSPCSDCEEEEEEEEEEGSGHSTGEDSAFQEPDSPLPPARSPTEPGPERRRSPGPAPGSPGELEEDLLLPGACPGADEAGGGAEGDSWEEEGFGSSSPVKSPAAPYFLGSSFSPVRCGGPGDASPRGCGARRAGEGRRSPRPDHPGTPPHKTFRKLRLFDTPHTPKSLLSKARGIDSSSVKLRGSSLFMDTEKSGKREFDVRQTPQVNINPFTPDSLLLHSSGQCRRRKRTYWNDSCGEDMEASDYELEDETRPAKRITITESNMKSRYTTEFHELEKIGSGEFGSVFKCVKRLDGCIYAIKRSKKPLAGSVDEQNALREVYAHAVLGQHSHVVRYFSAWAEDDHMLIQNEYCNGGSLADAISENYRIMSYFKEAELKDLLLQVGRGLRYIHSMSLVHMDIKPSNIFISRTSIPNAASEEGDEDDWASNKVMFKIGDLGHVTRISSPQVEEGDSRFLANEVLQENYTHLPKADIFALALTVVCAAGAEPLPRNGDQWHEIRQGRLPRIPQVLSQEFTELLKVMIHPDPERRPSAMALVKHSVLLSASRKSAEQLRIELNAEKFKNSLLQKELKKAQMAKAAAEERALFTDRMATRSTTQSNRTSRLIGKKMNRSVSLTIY
Method in brief: as §1

[6] = molecular target: T6, 380 human recombinant protein kinases (Homo sapiens, UniProt Q8WXR4); settings: MYO3B(h), read-out: Inhibition rate
T6 construct: purchased Eurofins (Celle Lévescault)
T6 sequence (Q8WXR4 1-1341): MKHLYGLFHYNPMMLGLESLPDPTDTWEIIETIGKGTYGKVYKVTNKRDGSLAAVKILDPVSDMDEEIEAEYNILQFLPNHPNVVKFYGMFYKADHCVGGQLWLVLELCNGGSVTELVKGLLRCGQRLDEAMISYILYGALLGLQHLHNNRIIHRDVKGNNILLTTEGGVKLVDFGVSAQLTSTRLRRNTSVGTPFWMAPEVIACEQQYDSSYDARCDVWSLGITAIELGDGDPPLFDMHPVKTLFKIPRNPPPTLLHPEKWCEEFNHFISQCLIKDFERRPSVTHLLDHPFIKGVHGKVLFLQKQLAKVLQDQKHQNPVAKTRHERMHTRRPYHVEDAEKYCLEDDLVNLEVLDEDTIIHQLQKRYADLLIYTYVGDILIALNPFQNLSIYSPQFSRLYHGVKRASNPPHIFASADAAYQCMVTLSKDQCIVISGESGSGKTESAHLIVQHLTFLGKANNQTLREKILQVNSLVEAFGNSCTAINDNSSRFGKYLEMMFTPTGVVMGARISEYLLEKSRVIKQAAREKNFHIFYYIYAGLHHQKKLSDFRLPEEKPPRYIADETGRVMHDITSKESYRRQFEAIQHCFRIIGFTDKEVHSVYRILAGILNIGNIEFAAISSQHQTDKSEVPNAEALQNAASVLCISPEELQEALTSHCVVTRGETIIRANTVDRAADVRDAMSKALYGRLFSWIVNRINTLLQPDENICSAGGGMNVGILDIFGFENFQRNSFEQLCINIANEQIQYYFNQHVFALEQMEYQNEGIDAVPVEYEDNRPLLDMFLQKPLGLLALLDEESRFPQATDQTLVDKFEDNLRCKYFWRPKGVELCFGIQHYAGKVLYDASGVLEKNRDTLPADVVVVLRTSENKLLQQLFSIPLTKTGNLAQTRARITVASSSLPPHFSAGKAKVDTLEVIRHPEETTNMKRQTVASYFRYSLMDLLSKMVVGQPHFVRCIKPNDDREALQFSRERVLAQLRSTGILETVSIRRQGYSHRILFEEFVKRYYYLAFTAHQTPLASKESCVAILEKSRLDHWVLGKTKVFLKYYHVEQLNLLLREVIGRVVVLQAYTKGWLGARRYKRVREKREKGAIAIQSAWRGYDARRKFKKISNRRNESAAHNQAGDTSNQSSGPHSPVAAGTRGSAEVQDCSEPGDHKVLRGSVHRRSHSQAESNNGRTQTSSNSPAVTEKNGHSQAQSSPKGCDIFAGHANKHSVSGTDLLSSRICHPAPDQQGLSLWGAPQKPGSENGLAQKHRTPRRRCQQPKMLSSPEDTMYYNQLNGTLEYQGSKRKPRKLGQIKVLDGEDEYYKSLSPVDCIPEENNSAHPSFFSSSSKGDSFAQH
Method in brief: as §1

[7] = molecular target: T7, 380 human recombinant protein kinases (Homo sapiens, UniProt P52564); settings: MKK6(h), read-out: Inhibition rate
T7 construct: purchased Eurofins (Celle Lévescault)
T7 sequence (P52564 1-334): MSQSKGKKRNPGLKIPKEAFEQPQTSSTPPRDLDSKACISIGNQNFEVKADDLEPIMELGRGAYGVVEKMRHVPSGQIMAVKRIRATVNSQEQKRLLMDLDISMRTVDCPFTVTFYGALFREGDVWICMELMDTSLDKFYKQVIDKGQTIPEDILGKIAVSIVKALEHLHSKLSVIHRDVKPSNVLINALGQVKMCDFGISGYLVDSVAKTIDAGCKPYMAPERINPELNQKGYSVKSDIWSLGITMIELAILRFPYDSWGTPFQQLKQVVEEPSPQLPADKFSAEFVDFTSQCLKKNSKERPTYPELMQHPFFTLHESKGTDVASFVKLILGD
Method in brief: as §1

[8] = molecular target: T8, 380 human recombinant protein kinases (Homo sapiens, UniProt Q9UQM7); settings: CaMKIIα(h), read-out: Inhibition rate
T8 construct: purchased Eurofins (Celle Lévescault)
T8 sequence (Q9UQM7 whole entry): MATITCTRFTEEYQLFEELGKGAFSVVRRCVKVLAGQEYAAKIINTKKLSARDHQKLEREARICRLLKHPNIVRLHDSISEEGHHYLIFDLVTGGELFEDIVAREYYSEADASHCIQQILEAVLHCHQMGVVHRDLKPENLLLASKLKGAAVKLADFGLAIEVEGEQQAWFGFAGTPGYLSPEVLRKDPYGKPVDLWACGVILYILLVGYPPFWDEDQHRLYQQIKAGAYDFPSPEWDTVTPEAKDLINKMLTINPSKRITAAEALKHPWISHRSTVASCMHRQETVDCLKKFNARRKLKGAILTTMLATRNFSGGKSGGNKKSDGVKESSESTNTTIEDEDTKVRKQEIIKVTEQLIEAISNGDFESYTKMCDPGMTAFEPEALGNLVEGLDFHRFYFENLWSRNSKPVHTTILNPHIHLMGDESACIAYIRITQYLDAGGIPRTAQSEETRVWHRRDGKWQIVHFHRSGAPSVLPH
Method in brief: as §1

[9] = molecular target: T9, 380 human recombinant protein kinases (Homo sapiens, UniProt Q16620); settings: TrkB(h), read-out: Inhibition rate (%)
T9 construct: purchased Eurofins (Celle Lévescault)
T9 sequence (Q16620 32-822): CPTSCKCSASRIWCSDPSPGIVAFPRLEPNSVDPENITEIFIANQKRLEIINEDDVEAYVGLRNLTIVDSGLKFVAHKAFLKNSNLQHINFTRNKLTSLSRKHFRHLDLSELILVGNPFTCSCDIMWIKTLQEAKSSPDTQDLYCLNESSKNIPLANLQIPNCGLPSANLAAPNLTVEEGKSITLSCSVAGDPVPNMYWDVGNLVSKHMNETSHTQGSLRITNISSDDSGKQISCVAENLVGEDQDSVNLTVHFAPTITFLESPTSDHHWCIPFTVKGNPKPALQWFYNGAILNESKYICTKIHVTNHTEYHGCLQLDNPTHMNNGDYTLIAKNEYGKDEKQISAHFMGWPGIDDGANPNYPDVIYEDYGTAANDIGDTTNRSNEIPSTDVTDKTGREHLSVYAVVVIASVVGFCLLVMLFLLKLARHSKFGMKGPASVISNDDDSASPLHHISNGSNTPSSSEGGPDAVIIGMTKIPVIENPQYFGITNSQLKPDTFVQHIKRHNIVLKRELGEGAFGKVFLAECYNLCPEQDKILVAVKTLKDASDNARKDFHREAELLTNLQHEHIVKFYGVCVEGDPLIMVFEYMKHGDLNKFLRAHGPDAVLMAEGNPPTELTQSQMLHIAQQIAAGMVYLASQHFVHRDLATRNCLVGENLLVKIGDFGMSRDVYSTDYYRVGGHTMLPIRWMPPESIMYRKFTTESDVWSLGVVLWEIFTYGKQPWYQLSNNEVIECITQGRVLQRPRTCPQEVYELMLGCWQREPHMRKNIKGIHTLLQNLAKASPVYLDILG
Method in brief: as §1

SMILES: C=CC(=O)Nc1cc(-c2cc(-c3cc4c([nH]3)CCNC4=O)ccn2)ccc1OC(F)(F)F [compound 11]
- inhibition at 0.01 µM ([1]; 10 nM): -4%
- inhibition at 0.1 µM ([1]; 100 nM): 4%
- inhibition at 1 µM ([1]; 1000 nM): 6%
- inhibition at 0.01 µM ([2]; 10 nM): -6%
- inhibition at 0.1 µM ([2]; 100 nM): 5%
- inhibition at 1 µM ([2]; 1000 nM): 27%
- inhibition at 0.01 µM ([3]; 10 nM): 1%
- inhibition at 0.1 µM ([3]; 100 nM): 14%
- inhibition at 1 µM ([3]; 1000 nM): 9%
- inhibition at 0.01 µM ([4]; 10 nM): -1%
- inhibition at 0.1 µM ([4]; 100 nM): -8%
- inhibition at 1 µM ([4]; 1000 nM): 3%
- inhibition at 0.01 µM ([5]; 10 nM): -11%
- inhibition at 0.1 µM ([5]; 100 nM): -11%
- inhibition at 1 µM ([5]; 1000 nM): -4%
- inhibition at 0.01 µM ([6]; 10 nM): 3%
- inhibition at 0.1 µM ([6]; 100 nM): 4%
- inhibition at 1 µM ([6]; 1000 nM): 16%
- inhibition at 0.01 µM ([7]; 10 nM): -4%
- inhibition at 0.1 µM ([7]; 100 nM): -9%
- inhibition at 1 µM ([7]; 1000 nM): -15%
- inhibition at 0.01 µM ([8]; 10 nM): -3%
- inhibition at 0.1 µM ([8]; 100 nM): -4%
- inhibition at 1 µM ([8]; 1000 nM): -2%
- inhibition at 0.01 µM ([9]; 10 nM): -6%
- inhibition at 0.1 µM ([9]; 100 nM): -9%
- inhibition at 1 µM ([9]; 1000 nM): -20%
